Results published in patent US12465614B2, “Budesonide 21-phosphate salts and pharmaceutical compositions containing the same” (GENETIC S.P.A., priority 2020, dated 2025).

How the values were obtained:
[1] = tested on: compound 48/80 (C48/80)-induced skin edema in mice; assay: Cutaneous edema: C48/80-induced plasma extravasation, Evans blue method (Experimental Groups IV); assay type: in vivo; details: for C48/80-induced edema: 0.70 μmol/kg i.p. (0.30 mg/kg Bud, 0.36 mg/kg Bud 21-P); for reduction of C48/80-induced plasma extravasation: 2.32 μmol/kg i.p. (1.0 mg/kg Bud, 1.2 mg/kg Bud 21-P), 60 min before i.d. C48/80
Protocol: Male C57Bl/6 SPF mice (25±2 g, 6-week-old) were purchased from the animal house facilities at the São Paulo School of Medicine (Federal University of São Paulo, Brazil). They were group-housed in a temperature-controlled room at 22° C. with a 12/12-hour light/dark cycle, had free access to food and water and were allowed to acclimate to our local facility for one week before the start of the experimental procedures. The study agrees with the Ethical Principles for Animal Research established by the Brazilian College for Animal Experimentation (COBEA). According to the internal laboratory rules, euthanasia is performed if severe distress related to the test agents developed during the experiment.
In Protocol 4, Bud (at doses of 1.0 and 0.30 mg/kg) and Bud 21-P (at doses of 1.2 and 0.36 mg/kg) were administered on a molar base, these doses were equivalent to […] μmol/kg of each compound, respectively. The vehicle for dissolution of the compounds was sterile saline solution (0.9% NaCl) containing 12.5% DMSO (Sigma Chemical Co., St. Louis, MO). The compound solutions were prepared at concentrations such that the administered dose per kg of body weight results from the intraperitoneal (i.p.) administration of 10 ml/kg of each of the solutions.
Skin edema was assessed in mice according to the method previously described by Costa et al. (2006) and Yshii et al (2009). The mice were anesthetized with urethane (25% w/v, 10 ml/kg, i.p.), had their dorsal skin shaved, and thereafter i.p. treated with the vehicle/test compounds. Fifty-five minutes later, a volume of 100 μL of Evans blue dye solution (0.25% in sterile saline) was intravenously (i.v.) injected via the tail vein. Five minutes later, the BK and C48/80 were intradermally (i.d.) injected into the dorsal skin at a fixed volume of 50 μl using a randomized scheme. The same volume of Tyrode solution 50 μl was injected as a control. Thirty minutes later, a 1 ml blood sample was obtained via cardiac puncture and the mice were killed by urethane overdose followed by cervical dislocation. The blood samples were centrifuged at 6,000 g for 4 min to obtain the plasma. […] The dye was extracted from each piece of skin and plasma (100 μl) samples using formamide, and the absorbance of the resulting solutions was measured at 620 nm. The plasma extravasation due to each agent (expressed in μl/site) was calculated as the ratio between the absorbance of each respective skin piece, corrected by the blank value and plasma sample solutions, properly adjusted by the dilution factors. To homogenate data due to the variability of different group of animals (inter-group variations), edema data are expressed as the fold-change response relative to the mean Tyrode (control) response of each experiment.

[2] = tested on: Bradykinin acetate (BK)-induced skin edema in mice; assay: Cutaneous edema: BK-induced plasma extravasation, Evans blue method (Experimental Groups IV); assay type: in vivo
Protocol: Male C57Bl/6 SPF mice (25±2 g, 6-week-old) were purchased from the animal house facilities at the São Paulo School of Medicine (Federal University of São Paulo, Brazil). They were group-housed in a temperature-controlled room at 22° C. with a 12/12-hour light/dark cycle, had free access to food and water and were allowed to acclimate to our local facility for one week before the start of the experimental procedures. The study agrees with the Ethical Principles for Animal Research established by the Brazilian College for Animal Experimentation (COBEA). According to the internal laboratory rules, euthanasia is performed if severe distress related to the test agents developed during the experiment. […] The vehicle for dissolution of the compounds was sterile saline solution (0.9% NaCl) containing 12.5% DMSO (Sigma Chemical Co., St. Louis, MO). The compound solutions were prepared at concentrations such that the administered dose per kg of body weight results from the intraperitoneal (i.p.) administration of 10 ml/kg of each of the solutions. Bradykinin acetate (BK; cat. B3259, Sigma Chemical Co., St. Louis, MO) and compound 48/80 (C48/80; cat. C2313, Sigma Chemical Co., St. […] Skin edema was assessed in mice according to the method previously described by Costa et al. (2006) and Yshii et al (2009). The mice were anesthetized with urethane (25% w/v, 10 ml/kg, i.p.), had their dorsal skin shaved, and thereafter i.p. treated with the vehicle/test compounds. Fifty-five minutes later, a volume of 100 μL of Evans blue dye solution (0.25% in sterile saline) was intravenously (i.v.) injected via the tail vein. Five minutes later, the BK and C48/80 were intradermally (i.d.) injected into the dorsal skin at a fixed volume of 50 μl using a randomized scheme. The same volume of Tyrode solution 50 μl was injected as a control. Thirty minutes later, a 1 ml blood sample was obtained via cardiac puncture and the mice were killed by urethane overdose followed by cervical dislocation. The blood samples were centrifuged at 6,000 g for 4 min to obtain the plasma. The dorsal skin was removed, and the injected sites were punched out using an 8 mm diameter cork borer. […] The dye was extracted from each piece of skin and plasma (100 μl) samples using formamide, and the absorbance of the resulting solutions was measured at 620 nm. The plasma extravasation due to each agent (expressed in μl/site) was calculated as the ratio between the absorbance of each respective skin piece, corrected by the blank value and plasma sample solutions, properly adjusted by the dilution factors. To homogenate data due to the variability of different group of animals (inter-group variations), edema data are expressed as the fold-change response relative to the mean Tyrode (control) response of each experiment.

[3] = 0.70 μmol/kg i.p. (0.30 mg/kg Bud, 0.36 mg/kg Bud 21-P)
[4] = 2.32 μmol/kg i.p. (1.0 mg/kg Bud, 1.2 mg/kg Bud 21-P), 60 min before i.d. BK, measured 30 min after

SMILES | C48/80-induced edema [1] | reduction of C48/80-induced plasma extravasation [1] | BK-induced plasma extravasation [2, 3] | BK-induced plasma extravasation [2, 4]
CCCC1OC2CC3C4CCC5=CC(=O)C=CC5(C)C4C(O)CC3(C)C2(C(=O)COP(=O)(O)O)O1 (centres unmarked) [B, Budesonide 21-phosphate] | significantly inhibited C48180-induced edema | approximately 50% | significantly reduced the BK response | abolished BK-induced response
CCCC1OC2CC3C4CCC5=CC(=O)C=CC5(C)C4C(O)CC3(C)C2(C(=O)CO)O1 (stereo not drawn) [Bud, 11β,21-dihydroxy-16α,17α-(butylidenebis(oxy))pregna-1,4-diene-3.20-dione] | ineffective | approximately 50% | ineffective | abolished BK-induced response
